Data published in patent US20260001928A1 (CORTERIA PHARMACEUTICALS, priority 2022, published 2026).
*1 amine or outer side, *2 acyl side, *3 side chain or, on linkers, in order; H or OH if unused. Where a SMILES comes first, the peptide text is derived from it. Side-chain parts run from the residue outwards. [ ]: non-standard residue; d: D form. The star is where a group is joined. C20 diacid = O=C(O)CCCCCCCCCCCCCCCCCCC(=O)*; C18 diacid = O=C(O)CCCCCCCCCCCCCCCCC(=O)*; γGlu = O=C(O)[C@H](CCC(=O)[*:2])N[*:1]; X1 = O=C(CC1(N[*:1])CCOCC1)[*:2]; Api = NC1(C(=O)O)CCNCC1; AEEA = NCCOCCOCC(=O)O; Aib = CC(C)(N)C(=O)O

Assays:
[1] = Chemical stability in buffer (pH 7.4 / pH 4.5), % purity loss; format: physicochemical; conditions: 40° C. vs 5° C., 14 or 28 days; for Buffer stability pH 7.4 % purity loss: 100 mM phosphate buffer pH 7.4
In short: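 Compounds dissolved at 10 mg/mL target in 100 mM phosphate (pH 7.4) or 100 mM acetate (pH 4.5) buffer for 1 h at room temperature, then centrifuged. Diluted supernatant stored at 5 °C or 40 °C for 14 or 28 days; % purity loss by LC-UV.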

[2] = Pharmacokinetics in male Sprague Dawley rats after subcutaneous administration; format: in vivo; conditions: plasma, rat, SC, 0.05 mg/kg
Experimental: The pharmacokinetics of UCN-2 derivatives was studied in male Sprague Dawley rats after subcutaneous administration (SC) at 0.05, 0.1, 0.3 or 1 mg/kg. Peptides were formulated as a solution in 10 mM phosphate pH 7.4 buffer+glycerol 85% (2.3% v/v)). […] The supernatant (200 μL) was analyzed by LC-MSMS. Pharmacokinetic parameters were calculated using established non-compartmental methods. The area under the plasma concentration curve versus time (AUC) was determined using Watson LIMS (version 7.6), with linear trapezoidal interpolation in the ascending slope and logarithmic trapezoidal interpolation in the descending slope. The portion of the AUC from the last measurable concentration to infinity was estimated from the equation, Ct/kel, where Ct represents the last measurable concentration and kel is the elimination rate constant. The latter was determined from the concentration curve versus time by linear regression at the terminal phase of the semi-logarithmic plot.

[3] = In vitro subcutaneous tissue supernatant (SCts) stability and metabolite identification, rat; format: in vitro ADME; design: remaining at 2 h: dose or concentration left out as unconfirmed; conditions: male, Sprague Dawley; rat subcutaneous tissue supernatant (SCts), 37° C, 2 h
[4] = biological target: T1, CFR1R receptor (Homo sapiens, UniProt P34998); experiment: Activity at anti-target CFR1R receptor, cAMP assay in CRF1R-overexpression CHO-K1 cells; format: cell-based; conditions: 100% = Sauvagine at 100 nM; for EC50: cAMP
T1 construct: host or cells: CHO-K1 (clone 2)
T1 sequence (P34998 24-415): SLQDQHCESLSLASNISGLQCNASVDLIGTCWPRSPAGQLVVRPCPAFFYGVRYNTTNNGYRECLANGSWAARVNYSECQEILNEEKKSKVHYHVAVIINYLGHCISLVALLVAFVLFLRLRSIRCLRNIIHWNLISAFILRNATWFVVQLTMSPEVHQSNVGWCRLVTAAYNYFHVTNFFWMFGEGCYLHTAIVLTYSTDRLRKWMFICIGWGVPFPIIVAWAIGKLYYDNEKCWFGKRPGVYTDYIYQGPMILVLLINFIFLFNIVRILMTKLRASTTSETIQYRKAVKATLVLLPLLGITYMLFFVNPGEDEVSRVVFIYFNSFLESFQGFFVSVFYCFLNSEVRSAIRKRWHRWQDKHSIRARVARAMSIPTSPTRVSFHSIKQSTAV
In short: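 Clone 2 cells were cultured in F12 (Hams)/10% FBS/400 μg/ml G418 at 37° C./5% CO2, frozen in medium with 10% DMSO, and thawed vials used. The protocol followed the TeloHAEC procedure, with 4000 cells/well final and Sauvagine at 100 nM defining 100% activation.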

[5] = biological target: T2, human CRF2a receptor (Homo sapiens, UniProt Q13324); experiment: Activity at human CRF2a receptor, cAMP functional assay in TeloHEAC cells; format: cell-based; conditions: TeloHEAC cells stably expressing human CRF2a receptor, relative to urocortin 2 (100 nM = 100%)
T2 construct: expressed in transfected cells; host or cells: TeloHEAC cells
T2 sequence (Q13324 1-411): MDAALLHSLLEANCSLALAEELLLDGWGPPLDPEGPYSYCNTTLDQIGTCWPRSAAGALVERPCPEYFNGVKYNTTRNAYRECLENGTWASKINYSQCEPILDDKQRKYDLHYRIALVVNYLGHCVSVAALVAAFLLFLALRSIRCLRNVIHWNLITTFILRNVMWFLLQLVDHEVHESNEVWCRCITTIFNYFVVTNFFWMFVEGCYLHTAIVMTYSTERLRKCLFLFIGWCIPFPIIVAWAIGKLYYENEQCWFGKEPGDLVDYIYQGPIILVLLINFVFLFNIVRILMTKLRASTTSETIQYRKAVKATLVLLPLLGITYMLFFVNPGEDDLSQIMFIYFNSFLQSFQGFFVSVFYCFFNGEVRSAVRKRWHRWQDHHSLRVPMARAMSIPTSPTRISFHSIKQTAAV
In short: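 TeloHEAC cells stably expressing human CRF2a (10000 cells/well) were treated with 16-point 1:2 compound dilutions in HBSS/20 mM HEPES with IBMX for 30 min at 37° C. cAMP was read by HTRF (665/620 nm ratio). EC50 was the concentration giving 50% activation, with 100 nM urocortin 2 set as 100%.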

[6] = test system: Sprague Dawley rats; experiment: Effect on systolic blood pressure, telemetry in Sprague Dawley rats; format: in vivo, rat; conditions: 0.1 mg/kg SC
In short: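 Sprague Dawley rats with abdominal-aorta telemetry catheters, recovered ≥10 days, received 0.1 mg/kg SC of compound or vehicle. Systolic pressure recorded 1 h pre-dose as baseline, then continuously up to 48 hours, expressed as % change from baseline; duration of action is last time point with a BP effect (n=2).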

SMILES	Buffer stability pH 7.4 % purity loss [1]	AUC(0-t) [2] [ng·h/mL]	Cmax [2] [ng/mL]	Tmax [2] [h]	half-life [2] [h]	remaining at 2 h [3] [%]	Emax (% I) [4] [% I]	EC50 [4] [pM]	EC50 [5] [pM]	Buffer stability pH 4.5 % purity loss ([1]; 100 mM acetate buffer pH 4.5)	Systolic blood pressure (Mean) % change from baseline, 8 h ([6]; 8 h, n=2) [%]	Systolic blood pressure (Mean) % change from baseline, 12 h ([6]; 12 h, n=2) [%]	Systolic blood pressure (Mean) % change from baseline, 24 h ([6]; 24 h, n=2) [%]	Duration of action ([6]; last time point with an effect on BP still observed) [h]
CC[C@H](C)[C@H](NC(C)=O)C(=O)N[C@H](C(=O)N[C@@H](CC(C)C)C(=O)N[C@@H](CO)C(=O)N[C@@H](CC(C)C)C(=O)N[C@@H](CC(=O)O)C(=O)N[C@@H](C(=O)N1CCC[C@H]1C(=O)N[C@H](C(=O)N[C@@H](CCCCN)C(=O)N[C@@H](CC(C)C)C(=O)N[C@@H](CCCCNC(=O)CC[C@H](NC(=O)CCCCCCCCCCCCCCCCC(=O)O)C(=O)O)C(=O)N[C@@H](CCCCN)C(=O)N[C@H](C(=O)N[C@@H](CC(C)C)C(=O)N[C@@H](CC(C)C)C(=O)N[C@@H](CCC(=O)O)C(=O)N[C@@H](CCC(N)=O)C(=O)N[C@@H](CCC(=O)O)C(=O)N[C@@H](CCCCN)C(=O)N[C@@H](CCC(N)=O)C(=O)N[C@@H](CCCCN)C(=O)N[C@@H](CCCCN)C(=O)N[C@@H](CCC(N)=O)C(=O)N[C@@H](CCCNC(=N)N)C(=O)N[C@@H](CCC(=O)O)C(=O)N[C@@H](CCC(N)=O)C(=O)N[C@@H](C)C(=O)N[C@@H](CCC(=O)O)C(=O)N[C@H](C(=O)N[C@@H](CC(N)=O)C(=O)NC1(CC(=O)N[C@@H](CCC(N)=O)C(=O)N[C@H](C(=O)N[C@@H](CC(C)C)C(=O)N[C@@H](C)C(=O)N[C@@H](CCC(N)=O)C(=O)N[C@H](C(N)=O)C(C)C)[C@@H](C)CC)CCOCC1)[C@@H](C)O)[C@@H](C)CC)[C@@H](C)CC)C(C)C)C(C)C [compound 199] (Ac-IVLSLD[dV]PIKLK([γGlu-C18 diacid])KILLEQEKQKKQREQAETN[X1]QILAQV-NH2)	0/Not Tested %	1620	111	6	10.2	83	11	> 250000	160					
CC[C@H](C)[C@H](NC(C)=O)C(=O)N[C@H](C(=O)N[C@@H](CC(C)C)C(=O)N[C@@H](CO)C(=O)N[C@@H](CC(C)C)C(=O)N[C@@H](CC(=O)O)C(=O)N[C@@H](C(=O)N1CCC[C@H]1C(=O)N[C@H](C(=O)N[C@@H](CCCCN)C(=O)N[C@@H](CC(C)C)C(=O)N[C@@H](CCCCNC(=O)CC[C@H](NC(=O)CCCCCCCCCCCCCCCCC(=O)O)C(=O)O)C(=O)N[C@@H](CCCCN)C(=O)N[C@H](C(=O)N[C@@H](CC(C)C)C(=O)N[C@@H](CC(C)C)C(=O)N[C@@H](CCC(=O)O)C(=O)N[C@@H](CCC(N)=O)C(=O)N[C@@H](CCC(=O)O)C(=O)N[C@@H](CCCCN)C(=O)N[C@@H](CCC(N)=O)C(=O)N[C@@H](CCCCN)C(=O)NC(C)(C)C(=O)N[C@@H](CCC(N)=O)C(=O)N[C@@H](CCCNC(=N)N)C(=O)N[C@@H](CCC(=O)O)C(=O)N[C@@H](CCC(N)=O)C(=O)N[C@@H](C)C(=O)N[C@@H](CCC(=O)O)C(=O)N[C@H](C(=O)N[C@@H](CC(N)=O)C(=O)NC(C)(C)C(=O)N[C@@H](CCC(N)=O)C(=O)N[C@H](C(=O)N[C@@H](CC(C)C)C(=O)N[C@@H](C)C(=O)N[C@@H](CCC(N)=O)C(=O)N[C@H](C(N)=O)C(C)C)[C@@H](C)CC)[C@@H](C)O)[C@@H](C)CC)[C@@H](C)CC)C(C)C)C(C)C [compound 190] (Ac-IVLSLD[dV]PIKLK([γGlu-C18 diacid])KILLEQEKQK[Aib]QREQAETN[Aib]QILAQV-NH2)	0.0/Not Tested %	1930	112	5	5.7	95	9	> 250000	300					
CC[C@H](C)[C@H](NC(C)=O)C(=O)N[C@H](C(=O)N[C@@H](CC(C)C)C(=O)N[C@@H](CO)C(=O)N[C@@H](CC(C)C)C(=O)N[C@@H](CC(=O)O)C(=O)N[C@@H](C(=O)N1CCC[C@H]1C(=O)N[C@H](C(=O)N[C@@H](CCCCN)C(=O)N[C@@H](CC(C)C)C(=O)N[C@@H](CCCCNC(=O)CC[C@H](NC(=O)CCCCCCCCCCCCCCCCC(=O)O)C(=O)O)C(=O)N[C@@H](CCCCN)C(=O)N[C@H](C(=O)N[C@@H](CC(C)C)C(=O)N[C@@H](CC(C)C)C(=O)N[C@@H](CCC(=O)O)C(=O)N[C@@H](CCC(N)=O)C(=O)N[C@@H](CCC(=O)O)C(=O)N[C@@H](CCCCN)C(=O)N[C@@H](CCC(N)=O)C(=O)N[C@@H](CCCCN)C(=O)N[C@@H](C)C(=O)N[C@@H](CCC(N)=O)C(=O)N[C@@H](CCCNC(=N)N)C(=O)N[C@@H](CCC(=O)O)C(=O)N[C@@H](CCC(N)=O)C(=O)N[C@@H](C)C(=O)N[C@@H](CCC(=O)O)C(=O)N[C@H](C(=O)N[C@@H](CC(N)=O)C(=O)NC1(C(=O)N[C@@H](CCC(N)=O)C(=O)N[C@H](C(=O)N[C@@H](CC(C)C)C(=O)N[C@@H](C)C(=O)N[C@@H](CCC(N)=O)C(=O)N[C@H](C(N)=O)C(C)C)[C@@H](C)CC)CCNCC1)[C@@H](C)O)[C@@H](C)CC)[C@@H](C)CC)C(C)C)C(C)C [compound 187] (Ac-IVLSLD[dV]PIKLK([γGlu-C18 diacid])KILLEQEKQKAQREQAETN[Api]QILAQV-NH2)	0.0/0.0 ^ %	2100	137	7	9.7	82	37		260	0.0/0.0 ^ %				
CC[C@H](C)[C@H](NC(C)=O)C(=O)N[C@H](C(=O)N[C@@H](CC(C)C)C(=O)N[C@@H](CO)C(=O)N[C@@H](CC(C)C)C(=O)N[C@@H](CC(=O)O)C(=O)N[C@@H](C(=O)N1CCC[C@H]1C(=O)N[C@H](C(=O)N[C@@H](CCCCN)C(=O)N[C@@H](CC(C)C)C(=O)N[C@@H](CCCCNC(=O)COCCOCCNC(=O)CC[C@H](NC(=O)CCCCCCCCCCCCCCCCCCC(=O)O)C(=O)O)C(=O)N[C@@H](CCCCN)C(=O)N[C@H](C(=O)N[C@@H](CC(C)C)C(=O)N[C@@H](CC(C)C)C(=O)N[C@@H](CCC(=O)O)C(=O)N[C@@H](CCC(N)=O)C(=O)N[C@@H](CCC(=O)O)C(=O)N[C@@H](CCCCN)C(=O)N[C@@H](CCC(N)=O)C(=O)N[C@@H](CCCCN)C(=O)N[C@@H](CCC(=O)O)C(=O)N[C@@H](CCC(N)=O)C(=O)N[C@@H](CCCNC(=N)N)C(=O)N[C@@H](CCC(=O)O)C(=O)N[C@@H](CCC(N)=O)C(=O)N[C@@H](C)C(=O)N[C@@H](CCC(=O)O)C(=O)N[C@H](C(=O)N[C@@H](CC(N)=O)C(=O)NC(C)(C)C(=O)N[C@@H](CCC(N)=O)C(=O)N[C@H](C(=O)N[C@@H](CC(C)C)C(=O)N[C@@H](C)C(=O)N[C@@H](CCC(N)=O)C(=O)N[C@H](C(N)=O)C(C)C)[C@@H](C)CC)[C@@H](C)O)[C@@H](C)CC)[C@@H](C)CC)C(C)C)C(C)C [compound 231] (Ac-IVLSLD[dV]PIKLK([AEEA-γGlu-C20 diacid])KILLEQEKQKEQREQAETN[Aib]QILAQV-NH2)	0.0/Not Tested %					65	10	> 250000	280		−3	−3	−12	>24
